Laboratory results: US20240246954A1, “COMPOSITIONS AND METHODS FOR INHIBITING KRAS” (TheRas, Inc., priority 2021, published 2024)
Like-named read-outs stand apart in the source and are kept apart here.

Experiments:
GDP KRAS G12D = GDP KRAS G12D (Homo sapiens, UniProt P01116, G12D); assay: SPR binding affinity, GDP KRAS G12D; settings: GDP-bound KRAS G12D
GppNHp KRAS G12D = GppNHp KRAS G12D (Homo sapiens, UniProt P01116, G12D); assay: SPR binding affinity, GppNHp KRAS G12D; settings: GppNHp-bound KRAS G12D
Chain of GppNHp KRAS G12D (P01116 1-188 isoform P01116-2 G12D): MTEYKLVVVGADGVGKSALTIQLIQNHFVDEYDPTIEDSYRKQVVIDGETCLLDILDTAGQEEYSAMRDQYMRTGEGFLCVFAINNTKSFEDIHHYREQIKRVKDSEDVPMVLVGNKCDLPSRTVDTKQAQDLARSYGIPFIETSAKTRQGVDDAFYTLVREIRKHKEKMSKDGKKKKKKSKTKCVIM

[1] = target: T1, Avi-KRAS G12D (1-169) GppNHp/RAF1 RBD-3×FLAG (52-151) (Homo sapiens, UniProt P01116, G12D); assay: HTRF Raf1-KRAS G12D-GppNHp disruption assay; assay type: biochemical; settings: 1 h incubation
T1 construct: Avi-KRAS G12D (1-169) GppNHp
T1 sequence (P01116 1-169 isoform P01116-2 G12D limits assumed): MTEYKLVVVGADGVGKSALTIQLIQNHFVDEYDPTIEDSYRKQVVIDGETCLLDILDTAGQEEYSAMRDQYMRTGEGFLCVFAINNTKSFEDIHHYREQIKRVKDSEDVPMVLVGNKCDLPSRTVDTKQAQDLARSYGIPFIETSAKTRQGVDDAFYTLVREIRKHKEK
Outline: (§1)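 Compounds titrated from 100 μM in a 10-point series, incubated with protein mix 1 h at room temperature, then HTRF reagents a further 1 h. Time-resolved fluorescence read (excitation 320 nm, emission 615 nm); activity expressed as percentage of DMSO control.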

[2] = target: T2, Avi-KRAS G12D/Q25A (1-169) GppNHp/3×FLAG-PI3KCA (157-299) (Homo sapiens, UniProt P01116, G12D/Q25A); assay: HTRF PI3KCA-KRAS G12D/Q25A-GppNHp disruption assay; assay type: biochemical; settings: 1 h incubation
T2 construct: Avi-KRAS G12D/Q25A (1-169) GppNHp
T2 sequence (P01116 1-169 isoform P01116-2 G12D/Q25A limits assumed): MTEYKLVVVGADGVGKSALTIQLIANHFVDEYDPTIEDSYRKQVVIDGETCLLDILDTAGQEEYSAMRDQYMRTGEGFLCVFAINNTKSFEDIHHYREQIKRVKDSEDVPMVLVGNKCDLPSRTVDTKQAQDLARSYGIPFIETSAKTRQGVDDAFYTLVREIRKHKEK
Outline: as §1

[3] = system: pERK in GP2d cells (KRAS G12D); assay: Cell-based pERK HTRF assay; settings: 60 min incubation
Outline: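 GP2d cells (DMEM, 10% FBS) treated 60 min with compounds in a 9-point half-log series from 1 μM top concentration, 0.25% DMSO. Lysates read for pERK by HTRF (d2/Eu cryptate antibodies) after 4–24 h at room temperature; emission at 615 nm.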

Chain of GDP KRAS G12D (P01116 1-188 isoform P01116-2 G12D): as the sequence (P01116 1-188 isoform P01116-2 G12D) above

IC50 ([3]; read-out: pERK-Gp2D-1hr) [nM] | SMILES | Kd (GDP KRAS G12D) [nM] | Kd (GppNHp KRAS G12D) [nM] | IC50 [1] [nM] | IC50 [2] [nM] | IC50 ([3]; GP2d, 1 h) [nM]
– | Nc1nc2c(-c3c(C(F)(F)F)cc4c(NC5CNC5)nc(OCC56CCCN5CCC6)nc4c3F)ccc(F)c2s1 [Compound 120] | ≤ 100 | ≤ 100 | 100 to 1000 | 100 to 1000 | > 1000
≤ 100 | Nc1nc2c(-c3c(C(F)(F)F)cc4c(N5CC6CC5CN6)nc(OC[C@@]56CCCN5C[C@H](F)C6)nc4c3F)ccc(F)c2s1 (stereo partly shown) [Compound 241] | ≤ 100 | ≤ 100 | 100 to 1000 | 100 to 1000 | –
– | Nc1nc2c(-c3c(C(F)(F)F)cc4c(N5CC6CCC(C5)N6)nc(OC[C@@]56CCCN5C[C@H](F)C6)nc4c3F)ccc(F)c2s1 [Compound 219, 4-(4-(3,8-diazabicyclo[3.2.1]octan-3-yl)-8-fluoro-2-(((2R,7aS)-2-fluorotetrahydro-1H-pyrrolizin-7a(5H)-yl)methoxy)-6-(trifluoromethyl)quinazolin-7-yl)-7-fluorobenzo[d]thiazol-2-amine] | ≤ 100 | ≤ 100 | ≤ 100 | 100 to 1000 | ≤ 100
– | N#Cc1c(N)sc2c(F)ccc(-c3c(Cl)cc4c(N5C[C@H]6CC[C@@H](C5)N6)nc(OC[C@@]56CCCN5C[C@H](F)C6)nc4c3F)c12 [Compound 260, 4-(4-((1R,5S)-3,8-diazabicyclo[3.2.1]octan-3-yl)-6-chloro-8-fluoro-2-(((2R,7aS)-2-fluorotetrahydro-1H-pyrrolizin-7a(5H)-yl)methoxy)quinazolin-7-yl)-2-amino-7-fluorobenzo[b]thiophene-3-carbonitrile] | ≤ 100 | ≤ 100 | ≤ 100 | 100 to 1000 | ≤ 100
– | CN1C2CCC1CN(c1nc(OC[C@@]34CCCN3C[C@H](F)C4)nc3c(F)c(-c4ccc(F)c5sc(N)nc45)c(C(F)(F)F)cc13)C2 [Compound 221] | ≤ 100 | 1000 to 10000 | 1000 to 10000 | 1000 to 10000 | 100 to 1000
– | N#Cc1c(N)sc2c(F)ccc(-c3c(C(F)(F)F)cc4c(N5C[C@H]6CC[C@@H](C5)N6)nc(OC[C@@]56CCCN5C[C@H](F)C6)nc4c3F)c12 [Compound 255, 4-(4-((1R,5S)-3,8-diazabicyclo[3.2.1]octan-3-yl)-8-fluoro-2-(((2R,7aS)-2-fluorotetrahydro-1H-pyrrolizin-7a(5H)-yl)methoxy)-6-(trifluoromethyl)quinazolin-7-yl)-2-amino-7-fluorobenzo[b]thiophene-3-carbonitrile] | ≤ 100 | ≤ 100 | ≤ 100 | 100 to 1000 | ≤ 100
– | Nc1nc2c(-c3c(Cl)cc4c(N5CC6CCC(C5)N6)nc(OCC56CCCN5CCC6)nc4c3F)ccc(F)c2s1 [Compound 157, 4-(4-(3,8-diazabicyclo[3.2.1]octan-3-yl)-6-chloro-8-fluoro-2-((tetrahydro-1H-pyrrolizin-7a(5H)-yl)methoxy)quinazolin-7-yl)-7-fluorobenzo[d]thiazol-2-amine] | ≤ 100 | ≤ 100 | 100 to 1000 | 100 to 1000 | 100 to 1000
– | Nc1nc2c(-c3c(C(F)(F)F)cc4c(N[C@@H]5CCNC5)nc(OC[C@@]56CCCN5C[C@H](F)C6)nc4c3F)ccc(F)c2s1 (atropisomer, axis not shown) [Compound 248] | ≤ 100 | ≤ 100 | ≤ 100 | 100 to 1000 | > 1000
